Laboratory results from patent US12404345B2, “Humanized antibodies against iRHOM2” (SCIRHOM GMBH, priority 2021, dated 2025).

Test system: LPS-induced release of endogenous TNFα from human PBMCs from healthy donors
Experiment: ELISA-based TNFα release assay, LPS-induced, PBMCs from healthy donors
Format: cell-based
Details: PBMC, Batimastat 10 μM, LPS 0.01 ng/ml, 2 hours
Method: In the following study, ELISA-based TNF& release assays were performed to analyze the inhibitory effects of the antibodies of the invention on LPS-induced release of endogenous TNF& from primary human material obtained from healthy donors using peripheral blood mononuclear cells (PBMCs).
In brief, on day 1, Nunc black MaxiSorp® 96-well plates (Thermo Fisher Scientific, USA) were coated overnight with 100 μl per well of mouse anti-human TNFα capture antibody (provided as part of the DuoSet ELISA kit) at 4 μg/ml TBS at 4° C. On day 2, the capture antibody solution was removed and MaxiSorp® plates were blocked with 300 μl per well of TBS, 1% BSA at room temperature for 3 hours. […] Using an infinite M1000 (Tecan Group, Switzerland) microplate reader, the fluorescence of each well was collected at an excitation wavelength of 435 nm and an emission wavelength of 555 nm.

Q: `CNC(=O)[C@H](Cc1ccccc1)NC(=O)[C@H](CC(C)C)[C@H](CSc1cccs1)C(=O)NO` [Batimastat] was tested. Which inhibition at 10 µM did it give?
A: 98.9%
